# Measurements from patent US20220153780A1, “SALT FORMS OF S-(N, N-DIETHYLCARBAMOYL)GLUTATHIONE” (Tonix Pharma Holdings Limited, priority 2019, published 2022).
# Experiments:
# [1] = tested on: nucleus accumbens (NAc) and prefrontal cortex (PFC); conditions: intravenous administration, rats, Faiman et al., 2013; cited from earlier work
# [2] = Visual solubility of free carbamathione in water and common organic solvents; format: physicochemical
# Protocol: Initially, the solubility of free carbamathione was evaluated in water and in common organic solvents. The common organic solvents tested included dichloromethane (DCM), methanol, ethyl acetate, ethanol, acetonitrile, acetone, 2-propanol, and N,N-dimethylformamide.
# For each solvent the solubility of carbamathione was assessed by weighing out 50 mg of carbamathione into a stoppered tube followed by the addition of 0.05 mL of the test solvent to the tube. The mixture underwent vigorous shaking for 1 minute, and was placed in a constant temperature device for 15 minutes at 25.0±0.5° C. If the carbamathione was not completely dissolved, vigorous shaking was repeated for 1 minute and then placed in a constant temperature device for an additional 15 minutes. If the carbamathione was not fully dissolved, additional solvent was added portion-wise until dissolution of carbamathione was observed. If complete dissolution was not observed, the solution was heated until the boiling point under stirring to verify the solubility at high temperature. The solvents were classified according to the visual solubility determined into the groups described in Table 6.
# [3] = tested on: high alcohol-drinking-1 (HAD1) rats; experiment: 2-hour ethanol intake by adult male HAD1 rats after IP carbamathione; format: in vivo; conditions: IP 100, 200, 400 mg/kg, saline with 0.25% Tween 80 vehicle
# Protocol: The efficacy of carbamathione in reducing ethanol intake of rats was assessed. Adult male alcohol-preferring rats (P rats) and high alcohol-drinking-1 (HAD1) rats (˜75 days of age at the start) were used in this study. These rats underwent an 8-week acquisition/acclimation period of concurrent free-choice access to 15% and 30% ethanol. Animals were initiated with 24-hour access, which was titrated down to 2 hours per day for 5 days (Monday-Friday)/week access. Ethanol access began at the beginning of the dark cycle (10:00 h) in a room maintained on a reverse dark-light cycle (10:00 h to 22:00 h lights out).
# After the acquisition period, the animals underwent three weeks of testing. Four doses were tested: 0, 100, 200, and 400 mg/kg/day. Sterile isotonic (0.9% normal) saline with 0.25% Tween® 80 was used as the vehicle for all doses. Injection solutions were prepared approximately 1 hour prior to each administration.
# The carbamathione solution was maintained at −20° C. until mixing the solutions each day. Adding the carboxyl-associated compound helped dissolve the carbamathione solid, which was pulverized by mortar and pestle with 50 μl Tween® 80, resulting in a pH of 3.5. […] Doses were calculated at 3 ml/kg to allow for injection volume of 1.5 ml per 500 g rat. […]
# Data were analyzed by Dose, by Test Day, and 2-way mixed ANOVAs on each rat line, followed by Dunnett t-test planned comparisons.
compound,measurement,setting,value
"CCN(CC)C(=O)SCC(NC(=O)CCC(N)C(=O)O)C(=O)NCC(=O)O (stereo not shown) [carbamathione, S—(N,N-diethylcarbamoyl)glutathione]",GABA,[1],decreases
same,dopamine (DA),[1],increases
same,glutamate (Glu),[1],biphasic effect
same,Solubility at HT,"[2]; 2-Propanol, heated until the boiling point",No
same,Solubility at HT,"[2]; Acetone, heated until the boiling point",No
same,Solubility at HT,"[2]; Acetonitrile, heated until the boiling point",No
same,Solubility at HT,"[2]; Dichloromethane, heated until the boiling point",No
same,Solubility at HT,"[2]; Ethanol, heated until the boiling point",No
same,Solubility at HT,"[2]; Ethyl Acetate, heated until the boiling point",No
same,Solubility at HT,"[2]; Methanol, heated until the boiling point",No
same,Solubility at HT,"[2]; N,N-Dimethylformamide, heated until the boiling point",No
same,Solubility at HT,"[2]; Tetrahydrofuran, heated until the boiling point",No
same,Solubility at HT,"[2]; Water, heated until the boiling point (100° C.)",Dissolved
same,solubility in water,[2]; only at high temperature,sparingly soluble
same,solubility in all of the common organic solvents,[2]; visual solubility,very slightly soluble
same,effect on 2-hour ethanol intake,[3],no effect
